From PMC4589873, “A pain-inducing centipede toxin targets the heat activation machinery of nociceptor TRPV1” (Nature Communications, 2015) come the findings set out here.

One test has as its system TRPV1. The experiment in a line: Cooling of RhTx- or capsaicin-induced channel activation. The test is classed as cell-based. The conditions noted are these: RhTx at 1 μM. Here is the method:
(§1) As described in details in a previous report, macroscopic currents (in whole-cell, inside-out or outside-out configuration) as well as single-channel currents were recorded using a HEKA EPC10 amplifier with the PatchMaster software (HEKA). Both pipette solution and bath solution contained 130 mM NaCl, 3 mM HEPES and 0.2 mM EDTA (pH 7.2). All recordings were performed at room temperature unless otherwise stated. A holding potential of 0 mV was used from which a testing pulse to +80 mV was applied. Statistical difference was determined using the Student’s t-test, and indicated by ** when reaching the significance level P<0.001.

Another test concerns the target T1, mTRPV1 (Mus musculus, UniProt Q704Y3).
T1 construct: expressed in transfected cells; host or cells: HEK-293T
Kind of test: Whole-cell patch-clamp of mTRPV1 expressed in HEK293 cells. The format is cell-based. The note with it: SEM.
Source text: (§2) TRPV1 and TRPV3 chimeras used in this study were generated by the overlapping extension method[54] and confirmed by DNA sequencing, as described previously. Briefly, to generate V1/3S, the primer pairs (5′-[…]-3′and 5′-[…]-3′) were used. To generate other TRPV1/TRPV3 chimeras, the enzyme cutting sites by MluI were made by the primer pair (5′-[…]-3′ and 5′-[…]-3′) for TRPV1 and the primer pair (5′-[…]-3′ and 5′-[…]-3′) for TRPV3. The enzyme cutting sites by PvuI were made by the primer pair (5′-[…]-3′ and 5′-[…]-3′) for TRPV1 and the primer pair (5′-[…]-3′ and 5′-[…]-3′) for TRPV3. The enzyme cutting sites by BsiWI were made by the primer pair (5′-[…]-3′ and 5′-[…]-3′) for TRPV1 and the primer pair (5′-[…]-3′ and 5′-[…]-3′) for TRPV3. V1/3M were generated by enzyme cut and paste between MluI and PvuI sites, while V1/3L were generated by enzyme cut and paste between MluI and BsiWI sites. V1_S1S2_1, V1_S1S2_3 and V1_S1S2_3 were generated as previously reported. All mTRPV1 point mutations were constructed using the QuickChange II XL site-directed mutagenesis kit following the manufacturer’s instruction. These point mutations were sequenced to confirm that appropriate constructs were made. HEK-293T cells were cultured and transiently transfected using Lipofectamine 2,000 (Invitrogen) as previously described.
as §1

For test [1], the system named is mTRPV1 point mutants at D602, Y632, T634 and L461. The experiment in a line: Whole-cell current of mTRPV1 point mutants. The format is cell-based, mouse. The note with it: glycine or alanine mutation, both at 10 μM, +80 mV.
Source text: as §2, with “All mTRPV1 point mutations were constructed using the QuickChange II XL site-directed mutagenesis kit following the manufacturer’s instruction. These point mutations were sequenced to confirm that appropriate constructs were made. HEK-293T cells were cultured and transiently transfected using Lipofectamine 2,000 (Invitrogen) as previously described.” left out
As described in details in a previous report, macroscopic currents (in whole-cell, inside-out or outside-out configuration) as well as single-channel currents were recorded using a HEKA EPC10 amplifier with the PatchMaster software (HEKA). […] Statistical difference was determined using the Student’s t-test, and indicated by ** when reaching the significance level P<0.001.

Test [2] shares this test system. The experiment in a line: Calcium imaging of mTRPV1 point mutants. The format is cell-based, mouse. The conditions noted are these: glycine or alanine mutation; 10 μM RhTx, 10 μM capsaicin. The text has this: TRPV1 and TRPV3 chimeras used in this study were generated by the overlapping extension method[54] and confirmed by DNA sequencing, as described previously. Briefly, to generate V1/3S, the primer pairs (5′-[…]-3′and 5′-[…]-3′) were used. To generate other TRPV1/TRPV3 chimeras, the enzyme cutting sites by MluI were made by the primer pair (5′-[…]-3′ and 5′-[…]-3′) for TRPV1 and the primer pair (5′-[…]-3′ and 5′-[…]-3′) for TRPV3. The enzyme cutting sites by PvuI were made by the primer pair (5′-[…]-3′ and 5′-[…]-3′) for TRPV1 and the primer pair (5′-[…]-3′ and 5′-[…]-3′) for TRPV3. The enzyme cutting sites by BsiWI were made by the primer pair (5′-[…]-3′ and 5′-[…]-3′) for TRPV1 and the primer pair (5′-[…]-3′ and 5′-[…]-3′) for TRPV3. […]
Mouse DRG neurons were acutely dissociated and maintained in a short-term primary culture according to procedures as previous descripted. […] Fluorescence images of DRG neurons and HEK-293T cells were acquired with an Olympus IX81 microscope with Hamamatsu C4742 charge-coupled device camera controlled by the MetaFluor Software (Molecular Devices). Fluo-4 was excited by a mercury vapour light source with a 500/20-nm excitation filter, while fluorescence emission was detected with a 535/30-nm emission filter. Fluorescence images were required with automated routines written in MetaMorph software (Molecular Devices) and analysed with Igor Pro (Wavemetrics).

The next test has as its system Trpv1−/− knockout mice. The experiment in a line: Paw-licking assay in TRPV1 knockout mice. The test is classed as in vivo, mouse. The note with it: intraplantar, 1 μmol per paw. How it is done: In vivo effects of RhTx on WT mice or Trpv1^−/− mice were examined according to protocols described previously. For the paw-licking assay, pain was induced in mice by intraplantar injection of 0.1% formalin, capsaicin (1 μmol per paw) or RhTx (1 μmol per paw). Each of the testing materials was dissolved in 100 μl saline. Control mice received the same volume of saline. Injected mice were placed individually into open polyvinyl cages (20 × 40 × 15 cm). Time spent licking the injected paw was recorded by a digital video camera during the following 40 min. For recording colonic temperature from WT or Trpv1^−/− mice, mice equipped with a copper-constantan thermocouple were individually placed in open polyvinyl cages. A data logger was connected to the thermocouple. Mice were injected intraperitoneally with 100 μl saline containing capsaicin or RhTx. The dose of capsaicin or RhTx was 10 μmol kg^−1 for these experiments. Mice in the control group received the same volume of saline.

Molecules are shown by their SMILES.

T1 sequence (Q704Y3 whole entry): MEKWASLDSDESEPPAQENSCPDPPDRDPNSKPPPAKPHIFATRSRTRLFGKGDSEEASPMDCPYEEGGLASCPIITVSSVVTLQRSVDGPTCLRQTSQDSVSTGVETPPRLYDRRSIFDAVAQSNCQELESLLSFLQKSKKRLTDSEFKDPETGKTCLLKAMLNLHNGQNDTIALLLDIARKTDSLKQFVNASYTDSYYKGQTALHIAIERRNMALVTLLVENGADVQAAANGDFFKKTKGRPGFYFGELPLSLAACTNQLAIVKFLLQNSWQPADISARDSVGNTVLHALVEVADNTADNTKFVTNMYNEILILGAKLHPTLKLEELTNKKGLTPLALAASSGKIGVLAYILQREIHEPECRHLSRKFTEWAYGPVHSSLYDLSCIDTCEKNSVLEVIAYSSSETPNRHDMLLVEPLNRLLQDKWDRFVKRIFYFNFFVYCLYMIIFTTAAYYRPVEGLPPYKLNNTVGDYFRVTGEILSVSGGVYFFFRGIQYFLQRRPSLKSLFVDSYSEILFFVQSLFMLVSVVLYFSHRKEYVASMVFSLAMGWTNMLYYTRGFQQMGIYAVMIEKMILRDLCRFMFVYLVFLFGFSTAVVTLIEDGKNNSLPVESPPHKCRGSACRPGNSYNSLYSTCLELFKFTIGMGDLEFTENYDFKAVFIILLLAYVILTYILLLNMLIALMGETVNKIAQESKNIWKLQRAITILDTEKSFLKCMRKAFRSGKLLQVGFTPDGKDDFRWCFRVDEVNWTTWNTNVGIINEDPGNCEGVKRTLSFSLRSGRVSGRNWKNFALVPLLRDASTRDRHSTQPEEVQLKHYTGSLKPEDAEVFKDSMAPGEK

Consider `COc1cc(CNC(=O)CCCC/C=C/C(C)C)ccc1O` [capsaicin, reference compound], for which the “effect of lowering the experimental temperature on agonist-induced channel activation” value with TRPV1 is “could not prevent”. At mTRPV1, it took 214 ± 20.6 nM to reach a half-maximal effect (EC50) and the Hill slope is 1.36±0.18. Moreover, in test [1], the “agonist-induced current in point mutants versus WT channel” value is on record as “sparing”. In addition, the “agonist-induced intracellular calcium increase in point mutants versus WT channel” value in test [2] is on record as “sparing”. Besides, the “pain behaviour (paw licking) in knockout mice” value in the test on Trpv1−/− knockout mice is given as “ineffective”.
